Experimental data: ChEMBL document CHEMBL1201862, “PubChem BioAssay data set” (2004)
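These data come from cells grown in 96-well plates and exposed to compound for 48 hours at five concentrations. The concentration for 50% growth inhibition is given as GI50.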 The source made the active and inactive calls. Rule as the data show it: active = GI50 up to about 1.1 µM and inactive = higher.

Assays:
Assay in all cases: NCI anticancer screen, dose series, 48 h
SK-MEL-5 = tested on: SK-MEL-5
SW-620 = tested on: SW-620
DMS-114 = tested on: DMS-114
M19-MEL = tested on: M19-MEL
SR = tested on: SR
SN12C = tested on: SN12C
HL-60 = tested on: HL-60
XF498 = tested on: XF498
U-251 = tested on: U-251
DLD-1 = tested on: DLD-1
SF-295 = tested on: SF-295
OVCAR-3 = tested on: OVCAR-3
HOP-18 = tested on: HOP-18
NCI-H23 = tested on: NCI-H23
COLO 205 = tested on: COLO 205
MOLT-4 = tested on: MOLT-4
SF-268 = tested on: SF-268
UO-31 = tested on: UO-31
SNB-75 = tested on: SNB-75
TK-10 = tested on: TK-10
UACC-257 = tested on: UACC-257
SK-MEL-2 = tested on: SK-MEL-2
HOP-62 = tested on: HOP-62
CCRF-CEM = tested on: CCRF-CEM
NCI-H522 = tested on: NCI-H522
LOX IMVI = tested on: LOX IMVI
HCT-116 = tested on: HCT-116
A498 = tested on: A498
HCT-15 = tested on: HCT-15
M14 = tested on: M14
OVCAR-5 = tested on: OVCAR-5
ACHN = tested on: ACHN
HCC 2998 = tested on: HCC 2998
DMS-273 = tested on: DMS-273
786-0 = tested on: 786-0
SF-539 = tested on: SF-539
SK-MEL-28 = tested on: SK-MEL-28
RXF 393 = tested on: RXF 393
KM-20L2 = tested on: KM-20L2
LXFL 529 = tested on: LXFL 529
SNB-78 = tested on: SNB-78
EKVX = tested on: EKVX
RPMI-8226 = tested on: RPMI-8226
SNB-19 = tested on: SNB-19
OVCAR-8 = tested on: OVCAR-8
UACC-62 = tested on: UACC-62
HOP-92 = tested on: HOP-92
SK-OV-3 = tested on: SK-OV-3
NCI-H460 = tested on: NCI-H460
Malme-3M = tested on: Malme-3M
NCI-H226 = tested on: NCI-H226
CAKI-1 = tested on: CAKI-1
IGROV-1 = tested on: IGROV-1
A549 = tested on: A549
K562 = tested on: K562
OVCAR-4 = tested on: OVCAR-4
HT-29 = tested on: HT-29
KM12 = tested on: KM12
RXF 631 = tested on: RXF 631

Measured: GI50

O=C(Cc1ccccc1)NN1C(=O)C(Cl)C1c1cccc([N+](=O)[O-])c1 (stereo not given)
active: SNB-75 0.729 µM
58.5 µM: HCT-15
inactive: SK-MEL-5 39.9 µM | SW-620 27.6 µM | DMS-114 28.5 µM | M19-MEL 5.16 µM | SR 3.06 µM | SN12C 38.8 µM | HL-60 10.4 µM | XF498 31.2 µM | U-251 63.2 µM | DLD-1 37.9 µM | SF-295 > 100 µM | OVCAR-3 43.4 µM | HOP-18 31.3 µM | NCI-H23 26.4 µM | COLO 205 > 100 µM | MOLT-4 12.4 µM | SF-268 44.7 µM | UO-31 31.7 µM | TK-10 > 100 µM | UACC-257 36.6 µM | SK-MEL-2 31.7 µM | HOP-62 > 100 µM | CCRF-CEM 2.33 µM | NCI-H522 1.91 µM | LOX IMVI 5.31 µM | HCT-116 23.4 µM | A498 > 100 µM | M14 46.7 µM | OVCAR-5 > 79.1 µM | ACHN > 60.5 µM | HCC 2998 > 100 µM | DMS-273 36.5 µM | 786-0 12.3 µM | SF-539 80 µM | SK-MEL-28 > 92.9 µM | RXF 393 25.6 µM | KM-20L2 > 83.4 µM | LXFL 529 14.2 µM | SNB-78 > 71.8 µM | EKVX 34.8 µM | RPMI-8226 16.6 µM | SNB-19 > 92.9 µM | OVCAR-8 27.9 µM | UACC-62 31.3 µM | HOP-92 14 µM | SK-OV-3 90.6 µM | NCI-H460 35.2 µM | Malme-3M > 78.5 µM | NCI-H226 > 42.9 µM | CAKI-1 38.5 µM | IGROV-1 4.18 µM | A549 > 100 µM | K562 21.3 µM | OVCAR-4 29.8 µM | HT-29 3.68 µM | KM12 > 90.4 µM

N=C(N)NCCCC(Nc1c2ccccc2nc2ccccc12)C(=O)O (stereo not given)
inactive: SW-620 > 100 µM | M19-MEL > 100 µM | SR > 100 µM | SN12C > 100 µM | HL-60 26.5 µM | U-251 > 100 µM | DLD-1 > 100 µM | SF-295 > 100 µM | OVCAR-3 82.6 µM | NCI-H23 > 100 µM | COLO 205 > 100 µM | MOLT-4 86.7 µM | SF-268 > 100 µM | RXF 631 75.3 µM | SNB-75 > 100 µM | TK-10 53.7 µM | UACC-257 > 100 µM | SK-MEL-2 > 100 µM | CCRF-CEM > 100 µM | NCI-H522 44 µM | LOX IMVI > 100 µM | HCT-116 > 100 µM | M14 > 100 µM | OVCAR-5 > 100 µM | ACHN > 100 µM | HCC 2998 > 100 µM | DMS-273 > 100 µM | 786-0 > 100 µM | SF-539 > 100 µM | SK-MEL-28 > 100 µM | RXF 393 > 100 µM | KM-20L2 > 100 µM | LXFL 529 > 100 µM | EKVX > 100 µM | RPMI-8226 33.1 µM | OVCAR-8 > 100 µM | HOP-92 > 100 µM | NCI-H460 > 100 µM | Malme-3M > 100 µM | NCI-H226 > 100 µM | CAKI-1 > 100 µM | A549 > 100 µM | K562 84.9 µM | OVCAR-4 3.51 µM | HT-29 > 100 µM | KM12 > 100 µM
> 100 µM: HCT-15

Cc1ccc(-c2nnc(-c3nn(-c4ccccc4)c4nc5ccccc5nc34)o2)cc1
21.4 µM: HCT-15
inactive: SK-MEL-5 10.9 µM | SW-620 35.6 µM | DMS-114 15.8 µM | M19-MEL 22.1 µM | SR 9.73 µM | SN12C 22.4 µM | HL-60 11 µM | XF498 11.4 µM | U-251 11.8 µM | DLD-1 16.9 µM | SF-295 15.6 µM | OVCAR-3 14.1 µM | HOP-18 27.9 µM | NCI-H23 14 µM | COLO 205 47.2 µM | MOLT-4 16 µM | SF-268 11.1 µM | UO-31 20.4 µM | SNB-75 4.1 µM | TK-10 14 µM | UACC-257 35.9 µM | SK-MEL-2 16 µM | HOP-62 13.5 µM | CCRF-CEM 3.59 µM | NCI-H522 17.9 µM | LOX IMVI 15.7 µM | HCT-116 12 µM | M14 25.8 µM | OVCAR-5 > 100 µM | ACHN 14.4 µM | DMS-273 20.1 µM | 786-0 9.93 µM | SF-539 3.03 µM | SK-MEL-28 26.6 µM | RXF 393 6.05 µM | KM-20L2 42.4 µM | LXFL 529 10.6 µM | SNB-78 19.8 µM | EKVX 29.9 µM | RPMI-8226 8.38 µM | SNB-19 21.5 µM | OVCAR-8 10.9 µM | UACC-62 14.2 µM | HOP-92 7.52 µM | SK-OV-3 10.8 µM | NCI-H460 9.04 µM | NCI-H226 13.2 µM | CAKI-1 11.7 µM | IGROV-1 17.6 µM | A549 13.3 µM | K562 11.4 µM | OVCAR-4 3.01 µM | HT-29 41.7 µM | KM12 17.8 µM
